We go through 4 compounds from patent US4182760A, “Benzophenone anti-oximes, diazepin-N-oxides, and their use as pharmaceutical agents and as intermediates for pharmaceutical agents” (E. I. Du Pont de Nemours and Company, priority 1977, dated 1980).

The subject of one experiment is auditory pinna reflex. Nature of the experiment: Auditory Pinna Reflex test (loss of auditory pinna reflex). Type of experiment: in vivo, mouse. Particulars: fasted female white mice, intubated (oral), tested at 0.5, 2, 5 and 24 hours; for ED50: Mus musculus, read-out: Mouse ED50, Pinna Reflexes, Auditory. How it is done: (§1) Standard procedures for detecting and comparing the tranquilizer, muscle-relaxant, and sedative activity of compounds in this series for which there is a correlation with human efficacy are the following: pinna reflex tests, prehensile traction reflex tests, a muscle relaxant (anti-Straub tail) test, an antipentylenetetrazole test, and a mouse activity supression test (MAST).
(§2) Fasted female white mice, 5 per dose are intubated with drug at 4, 12, 36, 108 and 324 mg/kg in 1% Methocel®-1.25% Tween 80®, at 10 ml/kg. The auditory and tactile pinna are tested at 0.5, 2, 5 and 24 hours.
The mouse is placed on a horizontal bar 9 cm from a Galton whistle adjusted for 13 Kc. Failure to flatten the ears during one or two short bursts of sound constitutes loss of auditory pinna reflex.
(§3) Potency in the antipentylenetetrazole (PTZ) and the MAST indicates a potent antianxiety agent. Great potency for blockade of the mouse auditory pinna reflex with little or no effect on tactile pinna reflex is characteristic of minor tranquilizers. Centrally acting skeletal muscle relaxants profoundly affect the lift reflex with little effect on the grip reflex.
(§4) The following table includes the results of these tests conducted with the compounds of this invention; it also includes the results for diazepam and chlordiazepoxide, two well-known benzodiazepines widely-used commercially as tranquilizers.

The test system of a further experiment is tactile pinna reflex. Nature of the experiment: Tactile Pinna Reflex test (loss of tactile pinna reflex). Type of experiment: in vivo, mouse. The settings on record: fasted female white mice, intubated (oral), tested at 0.5, 2, 5 and 24 hours; for ED50: Mus musculus, read-out: Mouse ED50, Pinna Reflexes, Tactile. As to the method: as §1, §2
The mouse is held by the tail and the hairs inside the right ear are touched by the fine wire stylus from a 27 gauge needle. Failure of the mouse to twitch or move the head constitutes loss of the tactile pinna reflex.
as §3, §4

The next experiment deals with lift reflex. Nature of the experiment: Prehensile traction test, lift reflex. The settings on record: loss of lift reflex; for ED50: mouse, read-out: Mouse ED50, Prehensile Reflexes, Lift. Type of experiment: in vivo.
Source text: (§5) Standard procedures for detecting and comparing the tranquilizer, muscle-relaxant, and sedative activity of compounds in this series for which there is a correlation with human efficacy are the following: pinna reflex tests, […] reflex tests, a muscle relaxant (anti-Straub tail) test, an antipentylenetetrazole test, and a mouse activity supression test (MAST).
(§6) The mouse is gently swung by the tail toward a horizontal 12 gauge wire tautly stretched 25 cm above the bench. After the mouse grasps the wire with its forepaws, its posterior end is held directly below the wire. A normal mouse grasps the wire with its forepaws and immediately lifts its hind limbs to the wire. Failure to grasp the wire with the forepaws in one of 2 trials constitutes loss of the grip reflex; failure to lift the hind limbs to grasps the wire with at least one hind paw within 5 seconds constitutes loss of the lift reflex.
as §3, §4

For the next experiment, the system named is grip reflex. Description: Prehensile traction test, grip reflex. Type of experiment: in vivo. The settings on record: loss of grip reflex; for ED50: mouse, read-out: Mouse ED50, Prehensile Reflexes, Grip.
Source text: as §5, §6, §3, §4

In experiment [1] the test system is morphine-induced Straub tail. Description: Muscle relaxant (anti-Straub tail) test. The class given is in vivo, mouse. The settings on record: fasted female white mice, intubated (oral), morphine sulfate 53.7 mg/kg s.c. at 25 min, observed 30 min after test drug; for ED50: Mus musculus, 0.5 h.
Source text: as §1
MUSCLE RELAXANT (ANTI-STRAUB TAIL) TEST
Fasted female white mice, 5 per dose are intubated with test drug. Twenty-five minutes later morphine sulfate is given subcutaneously at 53.7 mg/kg. Thirty minutes after test drug the mice are observed for presence of Straub tail. Quantal ED50 values for blockade of morphine-induced Straub tail are calculated.
as §3, §4

Experiment [2] has as its system pentylenetetrazole (PTZ) clonic convulsions. Nature of the experiment: Antipentylenetetrazole (PTZ) test. Type of experiment: in vivo, mouse. Particulars: fasted female white mice, intubated (oral), PTZ 40 mg/kg i.v. 30 min later; for ED50: Mus musculus, 0.5 h.
Source text: as §1
ANTIPENTYLENETETRAZOLE (PTZ) TEST
Fasted female white mice, 10 per dose are intubated with drug in vehicle as above at doses such as 0, 1, 3, 9, 27 and 81 mg/kg. Thirty minutes later the mice are dosed intravenously with PTZ (Metrazol®^1) at 40 mg/kg (ED98 for clonic convulsions). Dosed animals which remain on a 4"×4" platform for 20 seconds are considered protected. Quantal ED50's are calculated by the moving average method.
^1 Original brand of pentylenetetrazole; sterile 10% aqueous solution for parenteral injection, Knoll Pharmaceutical Company.
as §3, §4

Experiment [3] relates to shock-induced suppression of exploratory locomotor behavior. Description: Mouse activity suppression test (MAST). The settings on record: fasted female white mice, dosed orally, 0.2 ma shock for 2.0 seconds per crossing; for ED20: Mus musculus, po. Type of experiment: in vivo.
Source text: as §1
MOUSE ACTIVITY S[…] (MAST)
The mouse activity s[…] (MAST) is a model system designed to detect compounds with possible antianxiety activity in humans. […] The punishment, an electric shock applied through the mouse's paws, quickly extinguishes normal behavior.
The test procedure is modified from Boissier, et al., European J. Pharm., 4, 145-151 (1968). Female white mice, fasted 16-22 hours, are randomly distributed to fiberglass holding boxes. Mice in groups of 10-20 are dosed orally and returned to their holding boxes until test time. Test drug suspensions or solutions are prepared by sonication in 1% Methocel®. Typical dose ranges include 0.5, 1, 2, and 4 mg/kg of 1, 3, 9, 27, 81 mg/kg plus a vehicle control and are selected to include one dose at which an effect such as sedation, stimulation, muscle weakness or analgesia was seen.
The test apparatus is an opaque, black plastic box with a clear lid and a stainless steel grid floor. The floor of the test box is marked off into four squares of equal size.
After dosing, a mouse is gently placed in one corner of the testing box and during the next minute each time the mouse makes a full crossing from one square section of the box to another the floor is electrified with 0.2 ma current for 2.0 seconds.
The number of shocks received by each mouse is recorded and the mean number of shocks/dose (X) is determined. When X drug at any dose is statistically greater than X controls (Kruskal-Wallis test in S. Siegel^1), antagonism of suppression obtains and the drug is presumed to have antianxiety activity.
^1 S. Siegel: Non-parametric Statistics for Behavioral Sciences, pp. 184-194, McGraw-Hill (1956).
as §3, §4

Usually ED50 stands for the midpoint of the dose-response relation. Take `CN1C(=O)CN=C(c2ccccc2)c2cc(Cl)ccc21` [Diazepam]: the ED50 stood at 4 mg/kg in the experiment with auditory pinna reflex; 109 mg/kg in the experiment on tactile pinna reflex; 6 mg/kg in the experiment with lift reflex; 97 mg/kg with grip reflex; 0.25 mg/kg in experiment [1]; 1.3 mg/kg in experiment [2]. The ED20 in experiment [3] amounted to 0.45 mg/kg.

Turning to `CN1C(=O)C(F)[N+]([O-])=C(c2ccccc2)c2cc(Cl)ccc21` (stereo not shown) [(II), 7-Chloro-3-fluoro-1,3-dihydro-1-methyl-5-phenyl-2H-1,4-benzodiazepin-2-one 4-Oxide], the ED50 was 62 mg/kg with auditory pinna reflex; above 450 mg/kg in the experiment on tactile pinna reflex; 62 mg/kg in the experiment on lift reflex; above 450 mg/kg in the experiment on grip reflex; 1.7 mg/kg in experiment [1]; 3.9 mg/kg in experiment [2]. This compound also registered an ED20 in experiment [3] of 0.35 mg/kg.

Regarding `CNC1=Nc2ccc(Cl)cc2C(c2ccccc2)=[N+]([O-])C1` [Chlordiazepoxide], the 50% effective dose (ED50) stood at 17 mg/kg in the experiment with auditory pinna reflex; 209 mg/kg in the experiment on tactile pinna reflex; 11 mg/kg with lift reflex; 232 mg/kg in the experiment on grip reflex; 1.9 mg/kg in experiment [1]; 4.5 mg/kg in experiment [2]. Further, the ED20 in experiment [3] amounted to 1.9 mg/kg.

As for “5-Chloro-2-(N-methyl-N-chlorofluoroacetamido)benzophenone anti-Oxime [(I)]”, the “Mouse ED50, Pinna Reflexes, Auditory” value in the experiment with auditory pinna reflex came to 23. In the experiment on tactile pinna reflex, the “Mouse ED50, Pinna Reflexes, Tactile” value amounted to 360. Further, in the experiment on lift reflex, the “Mouse ED50, Prehensile Reflexes, Lift” value came to 36. For the same compound, the “Mouse ED50, Prehensile Reflexes, Grip” value in the experiment on grip reflex was 70. Besides, in experiment [1], the “Mouse ED50, Muscle Relaxant” value was found to be 5.8. Besides, the “Mouse ED50, PTZ” value in experiment [2] is listed as 4.5. The “Mast ED20%” value in experiment [3] was 3.5.
